Results from US20250302815A1, “PROTEIN TYROSINE PHOSPHATASE TARGETING LIGANDS” (CALICO LIFE SCIENCES LLC, priority 2021, published 2025).

Tests used:
[1] = target: T1, PTPN2 (HiBIT-PTPN2 in 293T.109 cells) (Homo sapiens, UniProt P17706); assay: HiBiT Degradation 293T.109 PTPN2 (Nano-Glo HiBiT Lytic Assay); format: cell-based; conditions: 24.0 hours
T1 construct: expressed in transfected cells; host or cells: 293T.109 (293T WT from ATCC)
T1 sequence (P17706 1-415): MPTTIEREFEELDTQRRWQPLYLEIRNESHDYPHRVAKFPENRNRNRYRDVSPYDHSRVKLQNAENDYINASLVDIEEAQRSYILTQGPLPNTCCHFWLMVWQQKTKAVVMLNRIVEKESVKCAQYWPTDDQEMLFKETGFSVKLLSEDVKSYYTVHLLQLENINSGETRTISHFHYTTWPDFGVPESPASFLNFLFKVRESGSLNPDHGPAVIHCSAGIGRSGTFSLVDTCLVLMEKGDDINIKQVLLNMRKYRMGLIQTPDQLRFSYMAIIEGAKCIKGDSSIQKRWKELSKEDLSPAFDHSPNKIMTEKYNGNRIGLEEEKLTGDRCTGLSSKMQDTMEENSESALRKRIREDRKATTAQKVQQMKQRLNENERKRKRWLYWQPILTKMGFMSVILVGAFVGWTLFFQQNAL
In short: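 Degradation read-out: lytic HiBiT luminescence after 24 h treatment (37 °C, 5% CO2) of 5000 293T cells per well expressing HiBiT-fused PTPN2 from an N-terminal tag. Dosing was 11 points, half-log steps down from 10 μM, in duplicate; vehicle-treated and no-reagent wells served as controls.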

PTPN2 (B16F10.4 cells) = target: T2, PTPN2 (B16F10.4 cells) (Mus musculus, UniProt Q06180); assay: HiBiT Degradation B16F10.4 PTPN2; format: cell-based; conditions: 24.0 hours
T2 construct: HiBiT; host or cells: B16F10.4
T2 sequence (Q06180 1-406): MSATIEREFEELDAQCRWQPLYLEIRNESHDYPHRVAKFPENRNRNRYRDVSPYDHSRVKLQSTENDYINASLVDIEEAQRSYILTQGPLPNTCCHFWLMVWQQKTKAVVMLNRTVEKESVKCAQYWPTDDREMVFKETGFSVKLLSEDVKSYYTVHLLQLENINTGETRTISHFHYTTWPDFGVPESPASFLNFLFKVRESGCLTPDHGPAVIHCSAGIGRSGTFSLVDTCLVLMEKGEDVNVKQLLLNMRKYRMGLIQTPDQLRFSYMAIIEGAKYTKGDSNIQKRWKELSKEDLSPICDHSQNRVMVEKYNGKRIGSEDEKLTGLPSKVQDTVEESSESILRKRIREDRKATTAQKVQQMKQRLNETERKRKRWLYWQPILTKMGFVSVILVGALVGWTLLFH

Structure (SMILES) | DC50 [1] | DC50 (PTPN2 (B16F10.4 cells))
Cn1c(=O)n(C2CCC(=O)NC2=O)c2ccc(-c3cnn(CC(=O)Nc4cccc(CS(=O)(=O)N5CC[C@H](Nc6cccc(-c7sc(C(=O)O)c(OCC(=O)O)c7Cl)c6)CC5(C)C)c4)c3)cc21 (stereo partly drawn) [Example 194, 3-(carboxymethoxy)-4-chloro-5-[3-[[(4S)-1-[[3-[[2-[4-[1-(2,6-dioxo-3-piperidyl)-3-methyl-2-oxo-benzimidazol-5-yl]pyrazol-1-yl]acetyl]amino]phenyl]methylsulfonyl]-2,2-dimethyl-4-piperidyl]amino]phenyl]thiophene-2-carboxylic acid] | 200 to 1000 nM | 50 to 200 nM
CC1(C)C[C@@H](Nc2cccc(-c3sc(C(=O)O)c(OCC(=O)O)c3Cl)c2)CCN1S(=O)(=O)Cc1cccc(NC(=O)N2CCC(c3ccc4c(c3)c3cccnc3n4C3CCC(=O)NC3=O)CC2)c1 (stereo partly drawn) [Example 195, 3-(carboxymethoxy)-4-chloro-5-[3-[[(4S)-1-[[3-[[4-[9-(2,6-dioxo-3-piperidyl)pyrido[2,3-b]indol-6-yl]piperidine-1-carbonyl]amino]phenyl]methylsulfonyl]-2,2-dimethyl-4-piperidyl]amino]phenyl]thiophene-2-carboxylic acid] | 200 to 1000 nM | 200 to 1000 nM
CC1(C)C[C@@H](Nc2cccc(-c3sc(C(=O)O)c(OCC(=O)O)c3Cl)c2)CCN1S(=O)(=O)Cc1cccc(NC(=O)N2CCC(c3ccc4c(ccn4C4CCC(=O)NC4=O)c3)CC2)c1 (stereo partly drawn) [Example 196, 3-(carboxymethoxy)-4-chloro-5-(3-(((4S)-1-((3-(4-(1-(2,6-dioxopiperidin-3-yl)-1H-indol-5-yl)piperidine-1-carboxamido)benzyl)sulfonyl)-2,2-dimethylpiperidin-4-yl)amino)phenyl)thiophene-2-carboxylic acid] | 200 to 1000 nM | 200 to 1000 nM
Cn1c(=O)n(C2CCC(=O)NC2=O)c2ccc(N3CCC(NCCNc4cccc(CS(=O)(=O)N5CC[C@H](Nc6cccc(-c7sc(C(=O)O)c(OCC(=O)O)c7Cl)c6)CC5(C)C)c4)CC3)cc21 (stereo partly drawn) [Example 197, 3-(carboxymethoxy)-4-chloro-5-[3-[[(4S)-1-[[3-[2-[[1-[1-(2,6-dioxo-3-piperidyl)-3-methyl-2-oxo-benzimidazol-5-yl]-4-piperidyl]amino]ethylamino]phenyl]methylsulfonyl]-2,2-dimethyl-4-piperidyl]amino]phenyl]thiophene-2-carboxylic acid] | < 50 nM | 50 to 200 nM
Cn1c(=O)n(C2CCC(=O)NC2=O)c2ccc(N3CCC(N4CCN(c5cccc(CS(=O)(=O)N6CC[C@H](Nc7cccc(-c8sc(C(=O)O)c(OCC(=O)O)c8Cl)c7)CC6(C)C)c5)C4=O)CC3)cc21 (stereo partly drawn) [Example 198, 3-(carboxymethoxy)-4-chloro-5-[3-[[(4S)-1-[3-[3-[[1-[1-(2,6-dioxo-3-piperidyl)-3-methyl-2-oxo-benzimidazol-5-yl]-4-piperidyl]-2-oxo-imidazolidin-1-yl]phenyl]methylsulfonyl]-2,2-dimethyl-4-piperidyl]amino]phenyl]thiophene-2-carboxylic acid] | 50 to 200 nM | 50 to 200 nM
CCn1nc(C2CCC(=O)NC2=O)c2ccc(C3CCN(C(=O)Nc4cccc(CS(=O)(=O)N5CC[C@H](Nc6cccc(-c7sc(C(=O)O)c(OCC(=O)O)c7Cl)c6)CC5(C)C)c4)CC3(F)F)cc21 (stereo partly drawn) [Example 200, 3-(carboxymethoxy)-4-chloro-5-[3-[[(4S)-1-[[3-[[4-[3-(2,6-dioxo-3-piperidyl)-1-ethyl-indazol-6-yl]-3,3-difluoro-piperidine-1-carbonyl]amino]phenyl]methylsulfonyl]-2,2-dimethyl-4-piperidyl]amino]phenyl]thiophene-2-carboxylic acid] | 50 to 200 nM | 50 to 200 nM
CC1(C)C[C@@H](Nc2cccc(-c3sc(C(=O)O)c(OCC(=O)O)c3Cl)c2)CCN1S(=O)(=O)Cc1cccc(NCCNCCCc2ccc3c4c(cccc24)C(=O)N3C2CCC(=O)NC2=O)c1 (stereo partly drawn) [Example 201] | 50 to 200 nM | 50 to 200 nM
CC1(C)C[C@@H](Nc2cccc(-c3sc(C(=O)O)c(OCC(=O)O)c3Cl)c2)CCN1S(=O)(=O)Cc1cccc(N2CCN(CCCc3ccc4c5c(cccc35)C(=O)N4C3CCC(=O)NC3=O)C2=O)c1 (stereo partly drawn) [Example 202] | 200 to 1000 nM | 50 to 200 nM
Cn1c(=O)n(C2CCC(=O)NC2=O)c2ccc(C3CCCN(C(=O)Nc4cccc(CS(=O)(=O)N5CC[C@H](Nc6cccc(-c7sc(C(=O)O)c(OCC(=O)O)c7Cl)c6)CC5(C)C)c4)C3)cc21 (stereo partly drawn) [Example 203, 3-(carboxymethoxy)-4-chloro-5-[3-[[(4S)-1-[[3-[[3-[1-(2,6-dioxo-3-piperidyl)-3-methyl-2-oxo-benzimidazol-5-yl]piperidine-1-carbonyl]amino]phenyl]methylsulfonyl]-2,2-dimethyl-4-piperidyl]amino]phenyl]thiophene-2-carboxylic acid] | 200 to 1000 nM | 50 to 200 nM
CC(C)n1c(=O)n(C2CCC(=O)NC2=O)c2ccc(C3CCN(CC(=O)Nc4cccc(CS(=O)(=O)N5CC[C@H](Nc6cccc(-c7sc(C(=O)O)c(OCC(=O)O)c7Cl)c6)CC5(C)C)c4)CC3)cc21 (stereo partly drawn) [Example 204, 3-(carboxymethoxy)-4-chloro-5-(3-(((4S)-1-((3-(2-(4-(1-(2,6-dioxopiperidin-3-yl)-3-isopropyl-2-oxo-2,3-dihydro-1H-benzo[d]imidazol-5-yl)piperidin-1-yl)acetamido)benzyl)sulfonyl)-2,2-dimethylpiperidin-4-yl)amino)phenyl)thiophene-2-carboxylic acid] | 50 to 200 nM | 50 to 200 nM
CC1(C)C[C@@H](Nc2cccc(-c3sc(C(=O)O)c(OCC(=O)O)c3Cl)c2)CCN1S(=O)(=O)Cc1cccc(NC(=O)N2CCC(c3ccc4c5c(cccc35)N(C3CCC(=O)NC3=O)C4=O)CC2)c1 (stereo partly drawn) [Example 205, 3-(carboxymethoxy)-4-chloro-5-[3-[[(4S)-1-[[3-[[4-[1-(2,6-dioxo-3-piperidyl)-2-oxo-benzo[cd]indol-S-yl]piperidine-1-carbonyl]amino]phenyl]methylsulfonyl]-2,2-dimethyl-4-piperidyl]amino]phenyl]thiophene-2-carboxylic acid] | 50 to 200 nM | 50 to 200 nM
CC1(C)C[C@H](Nc2cccc(-c3sc(C(=O)O)c(OCC(=O)O)c3Cl)c2)CCN1S(=O)(=O)Cc1cccc(NC(=O)N2CCC(c3ccc4c(c3)n(C3COC3)c(=O)n4C3CCC(=O)NC3=O)CC2)c1 (stereo partly drawn) [Example 206, 3-(carboxymethoxy)-4-chloro-5-(3-(((4R)-1-((3-(4-(1-(2,6-dioxopiperidin-3-yl)-3-(oxetan-3-yl)-2-oxo-2,3-dihydro-1H-benzo[d]imidazol-5-yl)piperidine-1-carboxamido)benzyl)sulfonyl)-2,2-dimethylpiperidin-4-yl)amino)phenyl)thiophene-2-carboxylic acid] | 200 to 1000 nM | 50 to 200 nM
Cn1c(=O)n(C2CCC(=O)NC2=O)c2ccc(C3CCN(C(=O)Nc4cccc(CS(=O)(=O)N5CC[C@H](Nc6cccc(-c7sc(C(=O)O)c(OCC(=O)O)c7Cl)c6)CC5(C)C)c4)CC3)c(Cl)c21 (stereo partly drawn) [Example 207, 3-(carboxymethoxy)-4-chloro-5-[3-[[(4S)-1-[[3-[[4-[4-chloro-1-(2,6-dioxo-3-piperidyl)-3-methyl-2-oxo-benzimidazol-5-yl]piperidine-1-carbonyl]amino]phenyl]methylsulfonyl]-2,2-dimethyl-4-piperidyl]amino]phenyl]thiophene-2-carboxylic acid] | 50 to 200 nM | 50 to 200 nM
Cc1cc2cc(C3CCN(C(=O)Nc4cccc(CS(=O)(=O)N5CC[C@H](Nc6cccc(-c7sc(C(=O)O)c(OCC(=O)O)c7Cl)c6)CC5(C)C)c4)CC3)ccc2n1C1CCC(=O)NC1=O (stereo partly drawn) [Example 208, 3-(carboxymethoxy)-4-chloro-5-[3-[[(4S)-1-[[3-[[4-[1-(2,6-dioxo-3-piperidyl)-2-methyl-indol-5-yl]piperidine-1-carbonyl]amino]phenyl]methylsulfonyl]-2,2-dimethyl-4-piperidyl]amino]phenyl]thiophene-2-carboxylic acid] | 200 to 1000 nM | 200 to 1000 nM
C[C@@H]1CN(C(=O)Nc2cccc(CS(=O)(=O)N3CC[C@H](Nc4cccc(-c5sc(C(=O)O)c(OCC(=O)O)c5Cl)c4)CC3(C)C)c2)CCN1c1ccc2c(c1)n(C)c(=O)n2C1CCC(=O)NC1=O (stereo partly drawn) [Example 209, 3-(carboxymethoxy)-4-chloro-5-[3-[[(4S)-1-[[3-[[(3R)-4-[1-(2,6-dioxo-3-piperidyl)-3-methyl-2-oxo-benzimidazol-5-yl]-3-methyl-piperazine-1-carbonyl]amino]phenyl]methylsulfonyl]-2,2-dimethyl-4-piperidyl]amino]phenyl]thiophene-2-carboxylic acid] | 50 to 200 nM | 50 to 200 nM
